Results reported in ChEMBL document CHEMBL1133657, “Synthesis and pharmacological characterization of [(125)I]iodomethyllycaconitine ([(125)I]iodo-MLA). A new ligand for the alpha(7) nicotinic acetylcholine receptor” (J Med Chem, 2000).

Columns and labels:
Rattus norvegicus [1] = species: Rattus norvegicus; assay: Bmax value(fmol/mg )was evaluated in rat brain using [125I]iodo-MLA
Rattus norvegicus [2] = species: Rattus norvegicus; assay: Affinity constant Kd(nM) in rat brain cerebral cortex homogenates.
Rattus norvegicus [3] = species: Rattus norvegicus; assay: Bmax value(fmol/mg protein) was evaluated in rat brain using [3H]MLA

SMILES	Bmax (Rattus norvegicus [1]) [fmol/mg]	Kd (Rattus norvegicus [2]) [nM]	Bmax (Rattus norvegicus [3]) [fmol/mg]
CCN1C[C@]2(COC(=O)c3cc([125I])ccc3N3C(=O)C[C@H](C)C3=O)CC[C@H](OC)[C@@]34[C@@H]5C[C@H]6[C@H](OC)[C@@H]5[C@](O)(C[C@@H]6OC)[C@](O)([C@@H](OC)[C@H]23)[C@@H]14	68		
[3H]c1cccc(N2C(=O)C[C@H](C)C2=O)c1C(=O)OC[C@@]12CC[C@H](OC)[C@@]34[C@@H]5C[C@H]6[C@H](OC)[C@@H]5[C@](O)(C[C@@H]6OC)[C@](O)([C@@H](OC)[C@H]13)[C@H]4N(CC)C2 [METHYLLYCACONITINE[3H] MLA]		1.9	65
